# Tests used:
# [1] = target: memapsin 2 (Homo sapiens, UniProt P56817); assay: Inhibition of memapsin 2 beta-secretase activity toward fluorogenic substrate FS-2; assay type: biochemical; details: pH 4, 37° C., 20 minutes pre-incubation, substrate FS-2, tight-binding model; read-out: M2 Ki
# Procedure: Potency of compounds were determined by measurement of their inhibition of memapsin 2 activity toward a fluorescent substrate. […] Briefly, assays were performed at pH 4, 37° C., by pre-incubation of memapsin 2 enzyme with compound for 20 minutes. Activity measure was initiated by addition of a fluorogenic substrate FS-2 (Bachem Americas, Torrance, Calif.). Fluorescent signal increase over time was measured as a rate of hydrolysis of the peptide substrate.
# [2] = target: Cathepsin D (Homo sapiens, UniProt P07339); assay: Inhibition of cathepsin D activity (substrate peptide […], MALDI-TOF); assay type: biochemical; details: pH 4.1, 37 degrees C., substrate NH3-[…]-CO2, MALDI-TOF; read-out: Cath D Ki
# Sequence of Cathepsin D (P07339 65-412, species assumed): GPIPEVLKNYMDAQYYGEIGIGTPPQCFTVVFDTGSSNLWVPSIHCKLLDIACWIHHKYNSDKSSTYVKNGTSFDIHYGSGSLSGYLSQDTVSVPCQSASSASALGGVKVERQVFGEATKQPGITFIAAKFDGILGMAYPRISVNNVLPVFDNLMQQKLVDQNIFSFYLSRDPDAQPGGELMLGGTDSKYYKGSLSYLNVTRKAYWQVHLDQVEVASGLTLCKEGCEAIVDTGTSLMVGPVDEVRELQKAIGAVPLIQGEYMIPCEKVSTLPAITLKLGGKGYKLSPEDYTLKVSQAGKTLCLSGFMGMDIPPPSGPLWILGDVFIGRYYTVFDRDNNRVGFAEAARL
# [3] = target: T1, memapsin 1 (Homo sapiens, UniProt Q9Y5Z0); assay: Inhibition of memapsin 1 beta-secretase activity (substrate peptide […], MALDI-TOF); assay type: biochemical; details: pH 4.1, 37 degrees C., substrate NH3-ELDLAVEFWHDR-CO2, MALDI-TOF; read-out: M1 Ki
# T1 sequence (Q9Y5Z0 63-518): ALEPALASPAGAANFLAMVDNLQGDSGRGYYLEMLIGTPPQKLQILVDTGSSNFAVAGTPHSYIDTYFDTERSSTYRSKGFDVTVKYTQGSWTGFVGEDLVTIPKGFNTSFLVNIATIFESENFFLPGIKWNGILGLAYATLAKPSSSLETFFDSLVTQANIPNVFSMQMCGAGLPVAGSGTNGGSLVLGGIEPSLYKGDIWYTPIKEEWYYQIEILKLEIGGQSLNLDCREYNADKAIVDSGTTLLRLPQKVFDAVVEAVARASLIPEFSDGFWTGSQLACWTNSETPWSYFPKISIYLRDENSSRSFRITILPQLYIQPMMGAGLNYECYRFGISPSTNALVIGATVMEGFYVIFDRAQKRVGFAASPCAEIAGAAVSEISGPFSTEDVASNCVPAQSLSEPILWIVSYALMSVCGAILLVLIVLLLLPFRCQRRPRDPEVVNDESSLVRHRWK
# [4] = tested on: Aβ production; assay: Cellular Aβ IC50 determination (Aβ40 sandwich ELISA); assay type: cell-based; details: Cricetulus griseus, Chinese hamster ovary cells over-expressing human APP695 with London and Swedish mutations, 24 h
# Procedure: The potency of compounds against memapsin 2 activity was determined in a cellular assay of Aβ production. […] Chinese hamster ovary cells that over-express human APP695 with the London and Swedish mutations were seeded in multi-well plates at 10% confluency. Compounds were dissolved in DMSO to concentrations near 1 mM, and diluted into culture media to a final concentration near 4 μM (final 0.4% DMSO). Compounds were diluted serially and applied to cells in multi-well plates 48 h after seeding. Incubation was continued in 5% CO2 at 37 degrees C. for 24 h. Aliquots were removed and assayed for Aβ40 content using a sandwich ELISA (BioSource International). Amount of Aβ40 over the range of concentration of compounds, relative to control incubations, were fit to a 4-parameter IC50 model.
# Sequence of memapsin 2 (P56817 46-501): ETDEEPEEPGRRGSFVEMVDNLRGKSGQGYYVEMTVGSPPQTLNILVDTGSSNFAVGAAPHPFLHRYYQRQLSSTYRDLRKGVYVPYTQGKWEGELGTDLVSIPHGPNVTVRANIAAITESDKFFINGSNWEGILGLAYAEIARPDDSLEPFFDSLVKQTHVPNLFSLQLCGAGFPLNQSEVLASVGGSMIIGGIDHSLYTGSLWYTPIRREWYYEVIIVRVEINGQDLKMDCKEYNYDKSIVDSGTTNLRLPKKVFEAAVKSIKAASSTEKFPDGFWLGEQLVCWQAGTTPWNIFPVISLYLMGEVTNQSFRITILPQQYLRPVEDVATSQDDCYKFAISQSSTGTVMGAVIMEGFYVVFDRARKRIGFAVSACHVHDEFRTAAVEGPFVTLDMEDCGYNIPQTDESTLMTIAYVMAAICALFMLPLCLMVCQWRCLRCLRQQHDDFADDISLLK
Ki [1] [nM],Ki [2] [nM],Ki [3] [nM],IC50 [4] [nM],SMILES
< 100,100 to 1000,< 100,< 6000,Cc1cc(C)n(COC(=O)N[C@@H](C[S+](C)[O-])C(=O)N[C@@H](CC(C)C)[C@@H](O)C[C@@H](C)C(=O)N[C@H](C(=O)NCC(C)C)C(C)C)n1 (stereo partly drawn) [Structure 9]
< 100,100 to 1000,100 to 1000,6000 to 100000,Cc1csc(COC(=O)N[C@@H](CS(C)(=O)=O)C(=O)N[C@H](CC(C)C)[C@@H](O)C[C@@H](C)C(=O)N[C@@H](C(=O)NCC(C)C)C(C)C)n1 [Structure 16]
< 100,< 100,100 to 1000,6000 to 100000,CSC[C@H](NC(=O)OCc1nc(C)cs1)C(=O)N[C@H](CC(C)C)[C@@H](O)C[C@@H](C)C(=O)N[C@@H](C(=O)NCC(C)C)C(C)C [Structure 17]
< 100,< 100,< 100,> 100000,C=CCS(=O)(=O)C[C@H](NC(=O)CCn1nc(C)cc1C)C(=O)N[C@H](CC(C)C)[C@@H](O)C[C@@H](C)C(=O)N[C@@H](C(=O)NCC(C)C)C(C)C [Structure 18]
< 100,< 100,< 100,> 100000,CCSC[C@H](NC(=O)OCc1nc(C)cs1)C(=O)N[C@H](CC(C)C)[C@@H](O)C[C@@H](C)C(=O)N[C@@H](C(=O)NCC(C)C)C(C)C [Structure 19]
< 100,100 to 1000,100 to 1000,< 6000,CCS(=O)(=O)C[C@H](NC(=O)OCc1nc(C)cs1)C(=O)N[C@H](CC(C)C)[C@@H](O)C[C@@H](C)C(=O)N[C@@H](C(=O)NCC(C)C)C(C)C [Structure 22]
< 100,< 100,100 to 1000,< 6000,CSC[C@H](NC(=O)OCc1nc(C)oc1C)C(=O)N[C@H](CC(C)C)[C@@H](O)C[C@@H](C)C(=O)N[C@@H](C(=O)NCC(C)C)C(C)C [Structure 29]
< 100,100 to 1000,100 to 1000,< 6000,COCCOCS(=O)(=O)C[C@H](NC(=O)OCc1nc(C)cs1)C(=O)N[C@H](CC(C)C)[C@@H](O)C[C@@H](C)C(=O)N[C@@H](C(=O)NCC(C)C)C(C)C [Structure 30]
< 100,100 to 1000,100 to 1000,6000 to 100000,Cc1csc(COC(=O)N[C@@H](CS(=O)(=O)C(C)C)C(=O)N[C@H](CC(C)C)[C@@H](O)C[C@@H](C)C(=O)N[C@@H](C(=O)NCC(C)C)C(C)C)n1 [Structure 31]
< 100,< 100,100 to 1000,< 6000,Cc1csc(COC(=O)N[C@@H](CSC(C)C)C(=O)N[C@H](CC(C)C)[C@@H](O)C[C@@H](C)C(=O)N[C@@H](C(=O)NCC(C)C)C(C)C)n1 [Structure 32]
< 100,< 100,100 to 1000,< 6000,CSC[C@H](NC(=O)C(C)Cc1nc(C)cs1)C(=O)N[C@H](CC(C)C)[C@@H](O)C[C@@H](C)C(=O)N[C@@H](C(=O)NCC(C)C)C(C)C (stereo partly drawn) [Structure 34]
< 100,100 to 1000,100 to 1000,> 100000,COCS(=O)(=O)C[C@H](NC(=O)OCc1nc(C)cs1)C(=O)N[C@H](CC(C)C)[C@@H](O)C[C@@H](C)C(=O)N[C@@H](C(=O)NCC(C)C)C1CCCCC1 [Structure 35]
< 100,< 100,< 100,< 6000,COCSC[C@H](NC(=O)OCc1nc(C)cs1)C(=O)N[C@H](CC(C)C)[C@@H](O)C[C@@H](C)C(=O)N[C@@H](C(=O)NCC(C)C)C(C)C [Structure 36]
< 100,100 to 1000,100 to 1000,> 100000,Cc1csc(CC(C)C(=O)N[C@@H](CS(C)(=O)=O)C(=O)N[C@H](CC(C)C)[C@@H](O)C[C@@H](C)C(=O)N[C@@H](C(=O)NCC(C)C)C(C)C)n1 (stereo partly drawn) [Structure 37]
< 100,< 100,100 to 1000,> 100000,CSC[C@H](NC(=O)CCc1nc(C)cs1)C(=O)N[C@H](CC(C)C)[C@@H](O)C[C@@H](C)C(=O)N[C@@H](C(=O)NCC(C)C)C(C)C [Structure 39]
< 100,100 to 1000,100 to 1000,> 100000,Cc1csc(CCC(=O)N[C@@H](CS(C)(=O)=O)C(=O)N[C@H](CC(C)C)[C@@H](O)C[C@@H](C)C(=O)N[C@@H](C(=O)NCC(C)C)C(C)C)n1 [Structure 40]
< 100,< 100,100 to 1000,6000 to 100000,CSC[C@H](NC(=O)OCc1nc(C)cs1)C(=O)N[C@H](CC(C)C)[C@@H](O)C[C@@H](C)C(=O)N[C@H](CC(C)C)C(=O)NC(C)C [Structure 43]
< 100,100 to 1000,100 to 1000,< 6000,Cc1csc(COC(=O)N[C@@H](CS(C)(=O)=O)C(=O)N[C@H](CC(C)C)[C@@H](O)C[C@@H](C)C(=O)N[C@H](CC(C)C)C(=O)NC(C)C)n1 [Structure 46]
< 100,< 100,100 to 1000,< 6000,Cc1csc(COC(=O)N[C@@H](CSCC(C)C)C(=O)N[C@H](CC(C)C)[C@@H](O)C[C@@H](C)C(=O)N[C@@H](C(=O)NCC(C)C)C(C)C)n1 [Structure 47]
< 100,100 to 1000,100 to 1000,< 6000,Cc1nc(COC(=O)N[C@@H](CS(C)(=O)=O)C(=O)N[C@H](CC(C)C)[C@@H](O)C[C@@H](C)C(=O)N[C@@H](C(=O)NCc2ccncc2)C(C)C)c(C)o1 [Structure 48]
< 100,100 to 1000,< 100,> 100000,Cc1csc(COC(=O)N[C@@H](CS(=O)(=O)CC(C)C)C(=O)N[C@H](CC(C)C)[C@@H](O)C[C@@H](C)C(=O)N[C@@H](C(=O)NCC(C)C)C(C)C)n1 [Structure 49]
100 to 1000,< 100,< 100,6000 to 100000,CSC[C@H](NC(=O)OCc1nc(C)oc1C)C(=O)N[C@H](Cc1ccccc1)[C@@H](O)C[C@@H](C)C(=O)N[C@@H](C(=O)NCC(C)C)C(C)C [Structure 50]
< 100,< 100,< 100,< 6000,CSC[C@H](NC(=O)OCc1nc(C)sc1C)C(=O)N[C@H](CC(C)C)[C@@H](O)C[C@@H](C)C(=O)N[C@@H](C(=O)NCC(C)C)C(C)C [Structure 53]
< 100,100 to 1000,< 100,< 6000,Cc1nc(COC(=O)N[C@@H](CS(C)(=O)=O)C(=O)N[C@H](CC(C)C)[C@@H](O)C[C@@H](C)C(=O)N[C@@H](C(=O)NCC(C)C)C(C)C)c(C)s1 [Structure 54]
< 100,< 100,< 100,6000 to 100000,Cc1csc(COC(=O)N[C@@H](CS(C)(=O)=O)C(=O)N[C@H](Cc2ccccc2)[C@@H](O)C[C@@H](C)C(=O)N[C@@H](C(=O)NCC(C)C)C(C)C)n1 [Structure 55]
< 100,< 100,100 to 1000,> 100000,Cc1csc(COC(=O)N[C@@H](CSC2CCCC2)C(=O)N[C@H](CC(C)C)[C@@H](O)C[C@@H](C)C(=O)N[C@@H](C(=O)NCC(C)C)C(C)C)n1 [Structure 56]
< 100,100 to 1000,100 to 1000,< 6000,Cc1nc(COC(=O)N[C@@H](CS(C)(=O)=O)C(=O)N[C@H](CC(C)C)[C@@H](O)C[C@@H](C)C(=O)N[C@@H](C(=O)NN(C)C)C(C)C)c(C)o1 [Structure 57]
< 100,100 to 1000,100 to 1000,< 6000,Cc1csc(COC(=O)N[C@@H](CS(=O)(=O)C2CCCC2)C(=O)N[C@H](CC(C)C)[C@@H](O)C[C@@H](C)C(=O)N[C@@H](C(=O)NCC(C)C)C(C)C)n1 [Structure 58]
< 100,100 to 1000,100 to 1000,6000 to 100000,Cc1nc(COC(=O)N[C@@H](CS(=O)(=O)C(C)C)C(=O)N[C@H](CC(C)C)[C@@H](O)C[C@@H](C)C(=O)N[C@@H](C(=O)NCC(C)C)C(C)C)c(C)o1 [Structure 59]
< 100,< 100,100 to 1000,< 6000,Cc1nc(COC(=O)N[C@@H](CSC(C)C)C(=O)N[C@H](CC(C)C)[C@@H](O)C[C@@H](C)C(=O)N[C@@H](C(=O)NCC(C)C)C(C)C)c(C)o1 [Structure 60]

# From US7335632B2, “Beta-secretase inhibitors and methods of use thereof” (CoMentis, Inc., priority 2001, dated 2008)
